What all share (assay type): cell-based
For assay [1], the target named is T1, Toll-like receptor 4 (Mus musculus) (UniProt Q9QUK6).
T1 sequence (whole entry): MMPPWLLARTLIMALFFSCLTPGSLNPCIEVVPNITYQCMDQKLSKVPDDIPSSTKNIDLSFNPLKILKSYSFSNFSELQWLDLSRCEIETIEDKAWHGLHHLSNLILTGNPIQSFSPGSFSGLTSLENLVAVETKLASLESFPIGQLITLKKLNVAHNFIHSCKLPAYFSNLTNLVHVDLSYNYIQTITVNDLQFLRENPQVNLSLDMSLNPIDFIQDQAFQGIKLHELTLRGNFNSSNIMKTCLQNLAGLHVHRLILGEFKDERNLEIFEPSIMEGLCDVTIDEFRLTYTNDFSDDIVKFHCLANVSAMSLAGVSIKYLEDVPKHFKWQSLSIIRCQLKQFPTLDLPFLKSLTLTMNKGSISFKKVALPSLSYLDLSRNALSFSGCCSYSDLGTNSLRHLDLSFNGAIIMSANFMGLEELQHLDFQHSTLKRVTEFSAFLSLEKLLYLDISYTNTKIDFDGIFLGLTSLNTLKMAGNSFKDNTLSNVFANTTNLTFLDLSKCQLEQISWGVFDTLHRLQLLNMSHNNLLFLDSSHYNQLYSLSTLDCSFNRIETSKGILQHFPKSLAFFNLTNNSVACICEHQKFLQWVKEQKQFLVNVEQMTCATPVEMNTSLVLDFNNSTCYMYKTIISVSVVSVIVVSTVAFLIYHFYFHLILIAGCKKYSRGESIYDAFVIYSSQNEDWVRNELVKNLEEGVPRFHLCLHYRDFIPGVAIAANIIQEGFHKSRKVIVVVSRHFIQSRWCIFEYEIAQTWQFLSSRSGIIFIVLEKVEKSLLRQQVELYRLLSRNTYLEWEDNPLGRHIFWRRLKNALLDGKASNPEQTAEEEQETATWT
Kind of assay: Inhibition of LPS binding to TLR4 in IFNgamma-stimulated mouse RAW264.7 cells assessed as reduction in nitric oxide production pretreated for 2 hrs followed by LPS/IFNgamma stimulation and measured after 24 hrs.

Assay [2] deals with T1, Toll-like receptor 4 (Mus musculus). Kind of assay: Inhibition of LPS binding to TLR4 in IFNgamma-stimulated mouse RAW264.7 cells assessed as suppression of iNOS mRNA expression at 100 uM by qRT-PCR analysis.
For assay [3] the target is unchanged. In words: Inhibition of LPS binding to TLR4 in IFNgamma-stimulated mouse RAW264.7 cells assessed as reduction in iNOS expression at 100 uM by Western blot analysis.
The target is the same in assay [4]. In words: Inhibition of LPS binding to TLR4 in IFNgamma-stimulated mouse RAW264.7 cells assessed as suppression of IL6 mRNA expression at 100 uM by qRT-PCR analysis.
The target is the same in assay [5]. In words: Inhibition of LPS binding to TLR4 in IFNgamma-stimulated mouse RAW264.7 cells assessed as effect on ratio of phosphorylated TAK1 to total TAK1 at 100 uM measured after 15 mins by Western blot analysis relative to beta-actin (reference value: 1.3).
Assay [6] has the same target. In words: Inhibition of LPS binding to TLR4 in IFNgamma-stimulated mouse RAW264.7 cells assessed as effect on ratio of phosphorylated TAK1 to total TAK1 at 100 uM measured after 30 mins by Western blot analysis relative to beta-actin (reference value: 3.7).
The target is the same in assay [7]. In words: Inhibition of LPS binding to TLR4 in IFNgamma-stimulated mouse RAW264.7 cells assessed as effect on ratio of phosphorylated TAK1 to total TAK1 at 100 uM measured after 60 mins by Western blot analysis relative to beta-actin (reference value: 3.1).
Assay [8] has the same target. In words: Inhibition of LPS binding to TLR4 in IFNgamma-stimulated mouse RAW264.7 cells assessed as effect on ratio of phosphorylated TAK1 to total TAK1 at 100 uM measured after 120 mins by Western blot analysis relative to beta-actin (reference value: 3).
For assay [9] the target is unchanged. In words: Inhibition of LPS binding to TLR4 in IFNgamma-stimulated mouse RAW264.7 cells assessed as effect on ratio of phosphorylated ERK to total ERK at 100 uM measured after 60 mins by Western blot analysis relative to beta-actin (reference value: 3).
The target is the same in assay [10]. Kind of assay: Inhibition of LPS binding to TLR4 in IFNgamma-stimulated mouse RAW264.7 cells assessed as effect on ratio of phosphorylated p38 to total p38 at 100 uM measured after 15 mins by Western blot analysis relative to beta-actin (reference value: 4.9).
Assay [11] shares this target. In words: Inhibition of LPS binding to TLR4 in IFNgamma-stimulated mouse RAW264.7 cells assessed as effect on ratio of phosphorylated p38 to total p38 at 100 uM measured after 120 mins by Western blot analysis relative to beta-actin (reference value: 2.2).
For assay [12] the target is unchanged. In words: Inhibition of LPS binding to TLR4 in IFNgamma-stimulated mouse RAW264.7 cells assessed as effect on ratio of phosphorylated AKT to total AKT at 100 uM measured after 30 mins by Western blot analysis relative to beta-actin (reference value: 1.4).
Assay [13] has the same target. In words: Inhibition of LPS binding to TLR4 in IFNgamma-stimulated mouse RAW264.7 cells assessed as effect on ratio of phosphorylated AKT to total AKT at 100 uM measured after 60 mins by Western blot analysis relative to beta-actin (reference value: 1.4).
Assay [14] shares this target. Kind of assay: Inhibition of LPS binding to TLR4 in IFNgamma-stimulated mouse RAW264.7 cells assessed as effect on ratio of phosphorylated AKT to total AKT at 100 uM measured after 120 mins by Western blot analysis relative to beta-actin (reference value: 1.4).
For assay [15] the target is unchanged. In words: Inhibition of LPS binding to TLR4 in IFNgamma-stimulated mouse RAW264.7 cells assessed as effect on ratio of phosphorylated NFkappaB to total NFkappaB at 100 uM measured after 60 mins by Western blot analysis relative to beta-actin (reference value: 1).
Assay [16] has as its system RAW264.7. Kind of assay: Inhibition of IFNgamma binding to IFNGR in LPS-stimulated mouse RAW264.7 cells assessed as effect on ratio of phosphorylated Stat1 to total Stat1 at 100 uM measured after 15 mins by Western blot analysis relative to beta-actin (reference value: 1.3).
The subject of assay [17] is RAW264.7. In words: Inhibition of IFNgamma binding to IFNGR in LPS-stimulated mouse RAW264.7 cells assessed as effect on ratio of phosphorylated Stat1 to total Stat1 at 100 uM measured after 30 mins by Western blot analysis relative to beta-actin (reference value: 1.9).
Assay [18] deals with RAW264.7. Kind of assay: Inhibition of IFNgamma binding to IFNGR in LPS-stimulated mouse RAW264.7 cells assessed as effect on ratio of phosphorylated Stat1 to total Stat1 at 100 uM measured after 120 mins by Western blot analysis relative to beta-actin (reference value: 4.1).
Assay [19] addresses T1, Toll-like receptor 4 (Mus musculus). In words: Displacement of Alexa fluor 488-conjugated LPS from TLR4 in mouse RAW264.7 cells at 100 uM pretreated for 2 hrs followed by Alexa fluor 488-conjugated LPS addition and measured after 30 mins by Hoechst 33342 staining based assay relative to control.

Active and inactive are the calls of the source. The rule behind the calls is not given here.

This is an account of results in ChEMBL document CHEMBL4261619, “Sentulic acid isolated from Sandoricum koetjape Merr attenuates lipopolysaccharide and interferon gamma co-stimulated nitric oxide production in murine macrophage RAW264 cells” (Bioorg Med Chem Lett, 2018).

Take `C=C(C)[C@@H]1CC[C@]2(C)[C@H](CC=C3[C@@H]4CC(C)(C)CC[C@]4(C)CC[C@]32C(=O)O)[C@@]1(C)CCC(=O)O`: the inhibition entry was “Dose-dependent effect” in assay [1] and 43% in assay [19]. The inhibition entry in assay [2], in [3] and in assay [4] was “Active” throughout. Also, the fold change (FC) stood at 1 in [5]; 0.6 in assay [6]; 1 in [7]; 0.9 in assay [8]; 2.2 in [9]; 4 in assay [10]. The fold change (FC) in assay [11] came to 1.3; in assay [12], 1.2; in [13], 1; in [14], 0.9; in [15] it was 1; in the assay with RAW264.7 [16], 1.2. The fold change (FC) in the assay with RAW264.7 [17] turned out to be 1.2; with RAW264.7 [18], 1.6.
